# According to US11667602B2, “Compounds and their use” (AstraZeneca AB, priority 2020, dated 2023):
# What was measured:
# [1] = Rat Hepatocyte Stability (Test E); type: in vitro ADME; conditions: rat, hepatocytes, geometric mean if run multiple times
# In short: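 Intrinsic clearance in rat hepatocytes, expressed as μl/min/10^6 cells, following the literature integrated DMPK panel method. Repeat determinations combined as geometric mean.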
# [2] = Human Plasma Protein Binding (Test B); type: in vitro ADME; conditions: fraction unbound (fu)
# In short: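 Values given as % free (fu) in human plasma, using the method of Wernevik et al. (2020). For compounds tested more than once, the arithmetic mean is given.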
# [3] = Solubility (Test F); type: physicochemical; conditions: arithmetic mean if run multiple times
# Description: The assay was conducted according to the Solubility Assay described in pages 164-167 of Wernevik, J. et al., “A Fully Integrated Assay Panel for Early Drug Metabolism and Pharmacokinetics Profiling”, Assay and Drug Development Technologies, 2020, 18(4), 157-179. Data are reported in Table 36 as solubility ([…]. Where the assay was run multiple times for the same compound, the arithmetic mean is reported.
# [4] = molecular target: T1, human RXFP1 (Homo sapiens, UniProt Q9HBX9); assay: RXFP1 Hu cAMP (Test A); type: cell-based; parameters: expressed in transfected cells; host or cells: Jump-In T-REx CHO-K1 cells (ThermoFisher), induced with 10 ng/ml doxycycline for 24 h; conditions: RXFP1 Hu cAMP; for EC50: read-out: Test A EC50
# T1 sequence (Q9HBX9 1-757): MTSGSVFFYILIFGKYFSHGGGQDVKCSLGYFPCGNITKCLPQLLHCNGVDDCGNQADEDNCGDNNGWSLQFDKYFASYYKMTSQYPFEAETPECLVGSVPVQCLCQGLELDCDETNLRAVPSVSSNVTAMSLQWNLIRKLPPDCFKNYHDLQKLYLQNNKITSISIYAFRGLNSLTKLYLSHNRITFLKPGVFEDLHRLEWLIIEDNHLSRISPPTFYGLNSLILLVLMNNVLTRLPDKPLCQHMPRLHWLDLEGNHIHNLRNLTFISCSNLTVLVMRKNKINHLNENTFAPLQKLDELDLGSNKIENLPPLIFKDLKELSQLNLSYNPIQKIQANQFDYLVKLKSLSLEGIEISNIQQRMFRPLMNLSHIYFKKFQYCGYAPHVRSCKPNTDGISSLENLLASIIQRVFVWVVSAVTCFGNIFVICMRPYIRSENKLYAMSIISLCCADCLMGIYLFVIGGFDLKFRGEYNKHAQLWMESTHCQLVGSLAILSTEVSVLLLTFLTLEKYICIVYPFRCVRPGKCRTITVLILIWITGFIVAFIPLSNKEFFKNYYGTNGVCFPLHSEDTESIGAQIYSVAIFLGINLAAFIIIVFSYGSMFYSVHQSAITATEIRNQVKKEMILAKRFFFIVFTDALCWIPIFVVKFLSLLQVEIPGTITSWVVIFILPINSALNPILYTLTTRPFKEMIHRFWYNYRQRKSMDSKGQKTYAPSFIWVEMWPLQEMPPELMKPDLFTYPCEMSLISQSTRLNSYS
# In short: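 Competitive HTRF cAMP readout (2 h, room temperature) in CHO-K1 cells stably expressing human RXFP1, induced with 10 ng/ml doxycycline for 24 h; IBMX 0.5 mM final.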
# [5] = Human Liver Microsomal Stability (Test C); type: in vitro ADME; conditions: human, liver microsomes
# In short: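 CLint (μl/min/mg protein) derived from compound depletion in human liver microsomes following a published standardized early-DMPK protocol; replicate determinations given as arithmetic mean.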
Compound,hepatocyte CLint [1] [µL/min/1e6 cells],Test B Human Plasma Protein Binding (% free) [2] [% free],solubility [3] [µM],Test A Sinf [4] [%],EC50 [4] [nM],microsomal CLint [5] [µL/min/mg]
COc1cc(F)c(-c2cnc(NCC(=O)O)nc2)cc1C(=O)N[C@@H]1[C@H]2CC[C@H](C2)[C@@H]1C(=O)Nc1cccc(S(=O)(=O)C(F)(F)F)c1 [Example 240],12,2.3,780,97,130,19
COCC1(CNC(=O)[C@H]2[C@@H]3CC[C@@H](C3)[C@H]2NC(=O)c2cc(O[C@H]3CC[C@@](C)(C(=O)O)CC3)c(C#N)cc2OC)CC1 [Example 79],31,28,980,–,> 5000,7.5
COc1cc(C#N)c(O[C@H]2CC[C@@](C)(C(=O)O)CC2)cc1C(=O)N[C@@H]1[C@H]2CC[C@H](C2)[C@@H]1C(=O)NCC1(C(C)C)CC1 [Example 78],37,6.9,820,120,–,44
"COc1cc(F)c(O[C@H]2CC[C@@H](C(=O)O)CC2)cc1C(=O)N[C@@H]1[C@H]2CC[C@H](C2)[C@@H]1C(=O)Nc1cccc(C(C)C)c1 [Example 196, (1S,4s)-4-(2-Fluoro-5-(((1S,2R,3S,4R)-3-((3-isopropylphenyl)carbamoyl)bicyclo[2.2.1]heptan-2-yl)carbamoyl)-4-methoxyphenoxy)cyclohexane-1-carboxylic acid]",79,1.7,290,103,220,40
"COc1cc(F)c(O[C@H]2CC[C@@H](C(=O)O)CC2)cc1C(=O)N[C@@H]1[C@H]2CC[C@H](C2)[C@@H]1C(=O)NC1CCCCC1 [Example 9, (1S,4s)-4-(5-(((1S,2R,3S,4R)-3-(Cyclohexylcarbamoyl)bicyclo[2.2.1]heptan-2-yl)carbamoyl)-2-fluoro-4-methoxyphenoxy)cyclohexane-1-carboxylic acid]",67,11,27,100,> 7300,9.2
COc1cc(C#N)c(O[C@H]2CC[C@@](C)(C(=O)O)CC2)cc1C(=O)N[C@@H]1[C@H]2CC[C@H](C2)[C@@H]1C(=O)NCc1nccc(C(F)F)n1 [Example 114],94,17,810,–,> 9400,17
"COc1cc(F)c(O[C@H]2CC[C@@H](C(=O)O)CC2)cc1C(=O)N[C@@H]1[C@H]2CC[C@H](C2)[C@@H]1C(=O)Nc1c(F)c(F)c(F)c(F)c1F [Example 16, (1S,4s)-4-(2-Fluoro-4-methoxy-5-(((1S,2R,3S,4R)-3-((perfluorophenyl)carbamoyl)bicyclo[2.2.1]heptan-2-yl)carbamoyl)phenoxy)cyclohexane-1-carboxylic acid]",49,2.2,330,93,330,9.3
COc1cc(F)c(O[C@H]2CC[C@@](C)(C(=O)O)CC2)cc1C(=O)N[C@@H]1[C@H]2CC[C@H](C2)[C@@H]1C(=O)N[C@H](C)C(C)C [Example 46],12,7.6,380,104,71,12
"COc1cc(F)c(O[C@H]2CC[C@@H](C(=O)O)CC2)cc1C(=O)N[C@@H]1[C@H]2CC[C@H](C2)[C@@H]1C(=O)Nc1ccc(C)c(C(F)(F)F)c1 [Example 192, (1S,4s)-4-(2-Fluoro-4-methoxy-5-(((1S,2R,3S,4R)-3-((4-methyl-3-(trifluoromethyl)phenyl)carbamoyl)bicyclo[2.2.1]heptan-2-yl)carbamoyl)phenoxy)cyclohexane-1-carboxylic acid]",43,0.67,120,109,35,21
COc1cc(C#N)c(O[C@H]2CC[C@@](C)(C(=O)O)CC2)cc1C(=O)N[C@@H]1[C@H]2CC[C@H](C2)[C@@H]1C(=O)NCC1(F)CCCC1 [Example 92],32,12,920,122,140,8.4
"COc1cc(F)c(O[C@H]2CC[C@@H](C(=O)O)CC2)cc1C(=O)N[C@@H]1[C@H]2CC[C@H](C2)[C@@H]1C(=O)NC(C)C [Example 8, (1S,4s)-4-(2-Fluoro-5-(((1S,2R,3S,4R)-3-(isopropylcarbamoyl)bicyclo[2.2.1]heptan-2-yl)carbamoyl)-4-methoxyphenoxy)cyclohexane-1-carboxylic acid]",38,23,980,–,> 50000,1.7
"COc1cc(F)c(O[C@H]2CC[C@H](NS(C)(=O)=O)CC2)cc1C(=O)N[C@@H]1[C@H]2CC[C@H](C2)[C@@H]1C(=O)Nc1cccc(S(=O)(=O)C(F)(F)F)c1 [Example 460, (1R,2S,3R,4S)-3-(4-fluoro-2-methoxy-5-(((1r,4R)-4-(methylsulfonamido)cyclohexyl)oxy)benzamido)-N-(3-((trifluoromethyl)sulfonyl)phenyl)bicyclo[2.2.1]heptane-2-carboxamide]",47,0.32,2,103,370,300
"CCC(CC)CNC(=O)[C@H]1CCC[C@H]1NC(=O)c1cc(O[C@H]2CC[C@@](C)(C(=O)O)CC2)c(F)cc1OC [Example 59, (1S,4s)-4-(5-(((1R,2S)-2-((2-Ethylbutyl)carbamoyl)cyclopentyl)carbamoyl)-2-fluoro-4-methoxyphenoxy)-1-methylcyclohexane-1-carboxylic acid]",27,2.4,960,100,550,22
"COc1cc(Br)c(O[C@H]2CC[C@@H](C(=O)O)CC2)cc1C(=O)N[C@@H]1[C@H]2CC[C@H](C2)[C@@H]1C(=O)Nc1cccc(S(=O)(=O)C(F)(F)F)c1 [Example 464, (1S,4s)-4-(2-Bromo-4-methoxy-5-(((1S,2R,3S,4R)-3-((3-((trifluoromethyl)sulfonyl)phenyl)carbamoyl)bicyclo[2.2.1]heptan-2-yl)carbamoyl)phenoxy)cyclohexane-1-carboxylic acid]",30,0.54,200,104,64,57
COc1cc(F)c(O[C@H]2CC[C@@H](C(=O)O)CC2)cc1C(=O)N[C@@H]1[C@H]2CC[C@H](C2)[C@@H]1C(=O)Nc1ccc(Cl)c(C(F)(F)F)c1 [Example 186],20,0.24,80,110,18,27
"COc1cc(F)c(O[C@H]2CC[C@@](C)(C(=O)O)CC2)cc1C(=O)Nc1cc(C)c(C)cc1C(=O)NCC1(C)CCC1 [Example 212, (1s,4s)-4-(5-((4,5-Dimethyl-2-(((1-methylcyclobutyl)methyl)carbamoyl)phenyl)carbamoyl)-2-fluoro-4-methoxyphenoxy)-1-methylcyclohexane-1-carboxylic acid]",17,<2.7,4,134,310,6.5
